Assay results taken from patent publication US9776979B2, “EBI2 modulators” (Sanford-Burnham Medical Research Institute, priority 2013, dated 2017).

Target: EBI2 (Homo sapiens, UniProt P32249)
Test: Cell-based luminescent assay (EBI2 modulation)
Settings: cell-based luminescence; 7a,25-OHC final assay concentration 80 nM; 60 minutes incubation; read-out: IC50
How it was run: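 Cells plated overnight at 37° C, then exposed to compound at 4-5 uM final with 80 nM 7a,25-OHC agonist for 60 min at 37° C. Luminescence read after 60 min detection at 25° C in the dark; values normalized to neutral and stimulator controls and plate-pattern corrected.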

EBI2, sequence (P32249 whole entry): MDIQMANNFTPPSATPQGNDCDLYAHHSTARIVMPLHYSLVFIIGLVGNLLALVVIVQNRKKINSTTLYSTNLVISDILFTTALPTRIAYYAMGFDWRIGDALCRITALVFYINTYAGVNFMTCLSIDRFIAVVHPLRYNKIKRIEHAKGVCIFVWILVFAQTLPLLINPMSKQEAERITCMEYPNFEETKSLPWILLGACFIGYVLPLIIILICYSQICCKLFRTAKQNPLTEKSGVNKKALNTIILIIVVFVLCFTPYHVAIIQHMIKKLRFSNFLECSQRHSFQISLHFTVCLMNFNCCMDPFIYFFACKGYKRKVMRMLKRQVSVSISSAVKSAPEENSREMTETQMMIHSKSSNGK

| Compound | IC50 |
| --- | --- |
| COc1ccc(/C=C/C(=O)N2CCN(S(=O)(=O)c3ccccc3)CC2)cc1 [Compound E4, (2E)-3-(4-methoxyphenyl)-1-[4-(phenylsulfonyl)piperazinyl]prop-2-en-1-one] | < 100 nM |
| CC(=O)c1ccc(S(=O)(=O)N2CCN(C(=O)/C=C/c3ccc(Br)cc3F)CC2)cc1 [Compound E5, 4-({4-[(2E)-3-(4-bromo-2-fluorophenyl)prop-2-enoyl]piperazinyl}sulfonyl)-1-acetylbenzene] | < 100 nM |
| O=C(/C=C/c1ccc(Br)cc1)N1CCC(CNCc2ccc(C(F)(F)F)cc2)CC1 [Compound F2] | < 100 nM |
| O=C(NCC1CCN(C(=O)/C=C/c2ccc(Br)cc2)CC1)c1ccc(C(F)(F)F)cc1 [Compound F3, (E)-N-((1-(3-(4-bromophenyl)acryloyl)piperidin-4-yl)methyl)-4-(trifluoromethyl)benzamide] | < 100 nM |
| (2E)-1-(4-{[4-(tert-butyl)phenyl]sulfonyl}piperazinyl)-3-(4-bromophenyl)prop-2-en-1-one [Compound C150] | < 100 nM |
| (2E)-1-[4-(2-(1,3-dihydroisobenzofuran-5-yl)ethyl)piperazinyl]-3-phenylprop-2-en-1-one [Compound C362] | < 100 nM |
| (2E)-1-[4-(diphenylmethyl)piperazinyl]-3-(4-bromo-2-fluorophenyl)prop-2-en-1-one [Compound C24] | < 100 nM |
| (2E)-1-[4-(diphenylmethyl)piperazinyl]-3-(4-bromophenyl)prop-2-en-1-one [Compound C27] | < 100 nM |
| (2E)-1-[4-({[(3,5-difluorophenyl)methyl]amino}methyl)piperidyl]-3-(4-bromophenyl)prop-2-en-1-one [Compound C54] | < 100 nM |
| (2E)-1-{4-[2-(2-fluorophenyl)ethyl]piperazinyl}-3-phenylprop-2-en-1-one [Compound C361] | < 100 nM |
| (2E)-1-{4-[(2,4-difluorophenyl)carbonyl]piperazinyl}-3-(4-bromophenyl)prop-2-en-1-one [Compound C46] | < 100 nM |
| (2E)-1-{4-[(2,5-difluorophenyl)methyl]piperazinyl}-3-phenylprop-2-en-1-one [Compound C350] | < 100 nM |
| (2E)-1-{4-[(2,5-dimethoxyphenyl)sulfonyl]piperazinyl}-3-(4-fluorophenyl)prop-2-en-1-one [Compound C318] | < 100 nM |
| (2E)-1-{4-[(2-methylphenyl)methyl]piperazinyl}-3-phenylprop-2-en-1-one [Compound C394] | 100 to 500 nM |
| (2E)-1-{4-[(3,5-dimethylphenyl)methyl]piperazinyl}-3-phenylprop-2-en-1-one [Compound C340] | < 100 nM |
| (2E)-1-{4-[(3-methoxyphenyl)methyl]piperazinyl}-3-phenylprop-2-en-1-one [Compound C379] | < 100 nM |

| Compound | IC50 |
| --- | --- |
| (2E)-1-{4-[(3-nitrophenyl)methyl]piperazinyl}-3-phenylprop-2-en-1-one [Compound C387] | < 100 nM |
| (2E)-1-{4-[(4-bromophenyl)sulfonyl]piperazinyl}-3-(4-chloro-2-fluorophenyl)prop-2-en-1-one [Compound C388] | < 100 nM |
| (2E)-3-(4-bromophenyl)-1-(4-heptanoylpiperazinyl)prop-2-en-1-one [Compound C80] | < 100 nM |
| (2E)-3-(4-bromophenyl)-1-[4-({[(4-chlorophenyl)methyl]amino}methyl)piperidyl]prop-2-en-1-one [Compound C74] | < 100 nM |
| (2E)-3-(4-bromophenyl)-1-[4-({[(4-fluorophenyl)methyl]amino}methyl)piperidyl]prop-2-en-1-one [Compound C47] | < 100 nM |
| (2E)-3-(4-bromophenyl)-1-{4-[({[3-fluoro-4-(trifluoromethyl)phenyl]methyl}amino)methyl]piperidyl} prop-2-en-1-one [Compound C121] | < 100 nM |
| (2E)-3-(4-ethoxyphenyl)-1-[4-(phenylsulfonyl)piperazinyl]prop-2-en-1-one [Compound C313] | < 100 nM |
| (2E)-3-(4-fluorophenyl)-1-[4-(naphthylsulfonyl)piperazinyl]prop-2-en-1-one [Compound C345] | < 100 nM |
| (2E)-3-phenyl-1-[4-(4-pyridylmethyl)piperazinyl]prop-2-en-1-one [Compound C466] | 100 to 500 nM |
| (2E)-3-phenyl-1-[4-benzylpiperazinyl]prop-2-en-1-one [Compound C337] | < 100 nM |
| (2E)-3-phenyl-1-piperazinylprop-2-en-1-one [Compound C444] | 100 to 500 nM |
| N-(4-bromophenyl){4-[(5-chloroindol-2-yl)carbonyl]piperazinyl}carboxamide [Compound C445] | 100 to 500 nM |
| benzo[d]furan-2-yl 4-(phenylethyl)piperazinyl ketone [Compound C405] | 100 to 500 nM |
| piperazinyl 5-nitroindol-2-yl ketone [Compound C134] | < 100 nM |
| tert-butyl 4-(indol-2-ylcarbonyl)piperazinecarboxylate [Compound C414] | 100 to 500 nM |
| {1-[(5-chloroindol-2-yl)carbonyl](4-piperidyl)}(4-chlorophenyl) [Compound C462] | 100 to 500 nM |
